# Measurements published in patent US5891657A (priority 1994, dated 1999).
# Assays:
# anti-analyte antibody [1] = details: magnetic-particle enzyme immunoassay
# Protocol: (§1) The sample to be tested is added, along with the enzyme conjugate, to a disposable test tube followed by the addition of paramagnetic particles with analyte-specific antibodies attached. At the end of an incubation period, a magnetic field is applied to hold the paramagnetic particles (with analyte and enzyme-conjugate bound to the antibodies on the particles, in proportion to their original concentration in the tube) in the tube and allow the unbound reagents to be decanted. After decanting, the particles are washed with Washing Solution.
# (§2) The presence of analyte is detected by adding the enzyme substrate (hydrogen peroxide) and the chromogen (3,3',5,5'-tetramethylbenzidine). The enzyme-conjugate bound to the anti-analyte antibody catalyzes the conversion of the substrate/chromogen mixture to a colored product. After an incubation period, the reaction is stopped and stabilized by the addition of acid. Since the conjugate was in competition with the unlabeled analyte for the antibody sites, the color developed is inversely proportional to the concentration of analyte in the sample.
# (§3) 200 μl of either standard, control or sample is added to each tube.
# (§4) 250 μl of conjugate is added to each tube.
# (§5) The antibody-coupled paramagnetic particles are mixed thoroughly and 500 ul of them are added to each tube (The stock solution with a concentration of 8-10 mg iron/ml was diluted 1:1000 in 150 mM Tris, 150 mM NaCl, 1 mM EDTA, 0.1% BSA with 15 ppm Proclin, pH 7.4 and 500 ul was added to each tube).
# (§6) Tubes are vortexed for 1 to 2 seconds minimizing foaming.
# (§7) Tubes are incubated for 15 min at room temperature (15°-30° C.).
# (§8) Tubes in the magnetic rack are placed over a magnetic base for two minutes.
# (§9) The tubes are decanted and gently blotted briefly in a consistent manner.
# (§10) One ml of Washing Solution is added to each tube and the tubes are allowed to remain in the separation rack for two minutes.
# (§11) Decant and gently blot all tubes briefly in a consistent manner.
# (§12) Repeat steps 8 and 9 an additional time.
# (§13) Remove the rack from the separator and add 500 μl of Color Solution to eac tube.
# (§14) Vortex for 1 to 2 seconds minimizing foaming.
# (§15) Incubate for 20 minutes at room temperature.
# (§16) Add 500 μl of Stopping Solution to each tube.
# (§17) Read results at 450 nm within 15 minutes after adding the Stopping Solution.
# (§18) Calculating the mean absorbance value for each standard.
# (§19) Calculating the % B/B0 for each standard by dividing the mean absorbance value for the standard by the mean absorbance value for the Diluent/Zero Standard In other words if the mean absorbance value for the standard is 0.5 times the mean absorbance value for the Diluent/Zero Standard then the % B/B0 is 50% and the concentration of standard used is the 50% B/B0 concentration.)
# (§20) Constructing a standard curve by plotting the % B/B0 for each standard on vertical logit (Y) axis versus the corresponding analyte concentration on a horizontal algorithmic (X) axis.
# (§21) 4. % B/B0 for controls and sample will then yield levels in ppm of analyte by interpolation using the standard curve.
# [2] = Stability (lack of volatilization) of 2 ml solution in stoppered 3 ml vial; assay type: physicochemical; details: 0.035, 0.10, 0.750 ppm; 2 ml in stoppered 3 ml vial; various temperatures; 60 days; FIGS. 2-4
# Protocol: Storage was effected by incubating the 2 ml of solution in a stoppered vial with a 3 ml capacity. The one ml of open "head space" in the vial […] to allow volatilization of the N-(3-methylbenzyl)-diglycolic acid, monoamide.
# At each concentration of the N-(3-methylbenzyl)-diglycolic acid, monoamide, the immunoassay was performed at various temperatures denoted in the Figure summarizing the results.
# anti-analyte antibody [3] = experiment: Cross-reactivity / immunoreactivity in competitive magnetic-particle enzyme immunoassay
# Protocol: as §1, §2, §3, §4, §5, §6, §7, §8, §9, §10, §11, §12, §13, §14, §15, §16, §17, §18, §19, §20, §21
# [4] = Loss of immunoreactivity on storage in open test tube (volatilization); assay type: physicochemical; details: conditions of Example 1; 2,4-D 10 ppm, naphthalene 0.75 ppm; FIG. 5
# Protocol: They were stored in 10 ml of distilled water at room temperature (15°-30° C.) in an open test tube (18 mm in diameter, and 150 mm in length).
# The "Recovery" was taken to be inversely proportional to the light at 450 nm generated in the assay. […] The loss of reactivity as a function of time was concluded that the loss was due to volatilization and not chemical decomposition of the compounds. Also the loss was so great that it was concluded that even if the solutions had been incubated as 2 ml aliquots in 3 ml closed vials, much more than 30 percent would have volatilized over a 14-day period.
# Additionally, preparations of anthracene (20 ppm), naphthalene (0.75 ppm), and 2,4-D (10 ppm), were tested for their immunoreactivity using the conditions of using the conditions described in Example 1.
# [5] = Storage stability, 2.5 ml in 3.5 ml vials, antibody preparation reactive with anthracene and phenanthrene; assay type: physicochemical
# Protocol: Additional experiments were done using volumes of 2.5 ml in 3.5 ml vials and an antibody preparation reactive with anthracene and phenanthrene, the antibodies not made with the immunogen described herein and although much less suited for purposes of the present inventions than that made from the described immunogen, were adequate for obtaining the stability curves. (The results were considered to essentially reflect what would have occurred if the storage was done with 2 ml of solution in a 3 ml vial.) Anthracene was tested at concentrations of 1 ppb (upper set of curves in FIG. 6), 10 ppb (middle set of curves in FIG. 6) and 100 ppb (lower set of curves in FIG. 6) in TBS pH 7.0 at the specified temperatures in FIG. 6. Phenanthrene was tested at concentrations of 1 ppb (upper set of curves in FIG. 7), 10 ppb (middle set of curves in FIG. 7) and 100 ppb (lower set of curves in FIG. 7) in TBS at pH 7.0 at the specified temperatures in FIG. 7.
# [6] = because of boiling point 279° C. (Merck Index); cited from earlier work
Compound,IC50 (anti-analyte antibody [1]) [µg/mL],further results
c1ccccc1 [benzene],51,
"Cc1cccc(CNC(=O)COCC(=O)O)c1 [N-(3-methylbenzyl)-diglycolic acid, monoamide]",,"stability (lack of volatilization) as a function of storage time [2]: essentially stable; equivalent Total BTEX concentration (anti-analyte antibody [3]; standard at 0.035 ppm): approximately 0.09 ppm; equivalent Total BTEX concentration (anti-analyte antibody [3]; standard at 0.035 ppm, monoamide): 0.09 ppm; equivalent Total BTEX concentration (anti-analyte antibody [3]; standard at 0.10 ppm): approximately 0.35 ppm; equivalent Total BTEX concentration (anti-analyte antibody [3]; standard at 0.10 ppm, monoamide): 0.35 ppm; equivalent Total BTEX concentration (anti-analyte antibody [3]; standard at 0.75 ppm): approximately 3.00 ppm; equivalent Total BTEX concentration (anti-analyte antibody [3]; standard at 0.75 ppm, monoamide): 3.00 ppm"
CCCCCC [n-hexane],> 100,
Clc1c(Cl)c(Cl)c(Cl)c(Cl)c1Cl [hexachlorobenzene],> 100,
CCCCCCCCC [n-nonane],> 100,
CCCCCCCCCC [n-decane],> 100,
Cc1ccccc1C [o-xylene],4.7,
"O=C(O)COc1ccc(Cl)cc1Cl [2,4-D]",,stability on storage [4]: more stable than m-xylene but less stable than anthracene
Cc1ccc(C)cc1 [p-xylene],3.1,
C=Cc1ccccc1 [styrene],2.6,
c1ccc2cc3ccccc3cc2c1 [anthracene],28,"stability on storage ([5]; 1, 10, 100 ppb in TBS pH 7.0, 2.5 ml in 3.5 ml vials, FIGS. 6, 7): very stable (meets the 14-day test)"
ClCCl [methylene chloride],> 100,
CCc1ccccc1 [ethylbenzene],7.8,
C1CCCCC1 [cyclohexane],> 100,
c1ccc2c(c1)ccc1ccccc12 [phenanthrene],1.6,stability on storage ([5]; pH 7): very stable (meets the 14-day test)
Cc1cccc(C)c1 [m-xylene],1.8,
CCCCCCC [n-heptane],72,
c1cc2c3c(cccc3c1)CC2 [acenaphthene],6.2,stability as regards volatilization [6]: stable as regards volatilization
"Cc1cc(C)cc(C)c1 [1,3,5-tri-methylbenzene]",3.5,
Cc1ccccc1 [toluene],7.4,
"Cc1ccc(C)c(C)c1 [1,2,4-trimethylbenzene]",1.15,
ClC=C(Cl)Cl [trichloroethylene],> 100,
CCCCCCCC [n-octane],> 100,
CCCc1ccccc1 [n-propylbenzene],4.7,
c1ccc2ccccc2c1 [naphthalene],0.59,stability on storage [4]: not sufficiently stable
